From patent US10669242B2 (priority 2016, dated 2020)

biological target: T1, recombinant glucosyltransferase domain of C. difficile Toxin B/TcdB (Clostridioides difficile, UniProt P18177); assay: biochemical
T1 construct: 6-His (C); purchased R&D Systems 6246-GT
T1 sequence (P18177 1-543): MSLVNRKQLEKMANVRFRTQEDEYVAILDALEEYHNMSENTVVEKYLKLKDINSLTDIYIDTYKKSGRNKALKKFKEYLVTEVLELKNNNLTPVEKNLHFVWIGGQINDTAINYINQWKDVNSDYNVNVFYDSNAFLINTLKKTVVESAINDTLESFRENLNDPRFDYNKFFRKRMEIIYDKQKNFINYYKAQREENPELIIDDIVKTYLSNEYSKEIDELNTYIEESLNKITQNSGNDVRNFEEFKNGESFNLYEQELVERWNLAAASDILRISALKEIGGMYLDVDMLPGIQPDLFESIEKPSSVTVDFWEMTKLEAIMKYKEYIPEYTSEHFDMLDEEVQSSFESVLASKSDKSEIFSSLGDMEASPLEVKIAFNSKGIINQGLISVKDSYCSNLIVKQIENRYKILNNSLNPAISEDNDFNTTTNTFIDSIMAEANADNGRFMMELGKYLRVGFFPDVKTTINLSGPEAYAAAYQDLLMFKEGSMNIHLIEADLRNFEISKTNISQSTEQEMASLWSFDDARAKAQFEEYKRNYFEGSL

Q: With `O=C1Nc2cc(Cl)ccc2C(=O)N(Cc2ccc(C(=NO)c3ccccn3)cc2)[C@@H]1Cc1ccccn1` (mixture of isomers) [Example 52a, (R)-8-Chloro-4-(4-((hydroxyimino)(pyridin-2-yl)methyl)benzyl)-3-(pyridin-2-ylmethyl)-3,4-dihydro-1H-benzo[e][1,4]diazepine-2,5-dione] as the compound, how does the IC50 read?
A: 100 to 999 nM

Q: How did the IC50 turn out when `O=C(O)c1ccc(CN2C(=O)c3ccc(Cl)cc3NC(=O)[C@H]2Cc2ccccn2)cc1` [Example 1a, (R)-4-((8-Chloro-2,5-dioxo-3-(pyridin-2-ylmethyl)-2,3-dihydro-1H-benzo[e][1,4]diazepin-4(5H)-yl)methyl)benzoic Acid] was run?
A: 100 to 999 nM

Q: How did the IC50 turn out when `O=C(O)c1ccc(CN2C(=O)c3ccc(F)cc3NC(=O)[C@H]2Cc2cccnc2)cc1` [Example 1b] was run?
A: 1000 to 10000 nM

Q: Which IC50 does the source give for `O=C(O)c1ccc(CN2C(=O)c3ccc(Cl)cc3NC(=O)[C@H]2Cc2ccncc2)cc1` [Example 1c] here?
A: 10000 to 35000 nM

Q: For `O=C(O)c1ccc(CN2C(=O)c3ccc(Cl)cc3NC(=O)[C@H]2Cc2ccc(Cl)c(Cl)c2)cc1` [Example 1d], which IC50 is on record?
A: 1000 to 10000 nM

Q: For `Cc1ccc2c(c1)NC(=O)[C@@H](Cc1ccc(Cl)c(Cl)c1)N(Cc1ccc(C(=O)O)cc1)C2=O` [Example 1e], which IC50 is on record?
A: 10000 to 35000 nM

Q: How did the IC50 turn out when `O=C(O)c1ccc(CN2C(=O)c3ccc(Cl)cc3NC(=O)[C@@H]2Cc2ccccn2)cc1` [Example 1f] was run?
A: 100 to 999 nM

Q: With `O=C(O)c1ccc(CN2C(=O)c3ccc(Br)cc3NC(=O)[C@H]2Cc2cccnc2)cc1` [Example 1g] as the compound, how does the IC50 read?
A: 1000 to 10000 nM

Q: With `O=C(O)c1ccc(CN2C(=O)c3ccc(Cl)cc3NC(=O)[C@H]2Cc2ccccn2)s1` [Example 1h] as the compound, how does the IC50 read?
A: 100 to 999 nM

Q: `O=C(O)c1ccc(CN2C(=O)c3ccc(Cl)cc3NC(=O)[C@H]2Cc2ccccn2)cc1F` [Example 1i] was tested. Which IC50 did it give?
A: 100 to 999 nM

Q: With `O=C1Nc2cc(Cl)ccc2C(=O)N(C[C@H]2CC[C@H](C(=O)O)CC2)[C@@H]1Cc1ccccn1` [Example 1j] as the compound, how does the IC50 read?
A: 10000 to 35000 nM

Q: For `O=C(O)c1ccc(CN2C(=O)c3ccc(Cl)cc3NC(=O)[C@H]2Cc2cccs2)cc1` [Example 1k], which IC50 is on record?
A: 10000 to 35000 nM

Q: `O=C(O)c1ccc(CN2C(=O)c3ccc(Cl)cc3NC(=O)C2Cc2cnccn2)cc1` (centres unmarked) [Example 1l] was tested. Which IC50 did it give?
A: 1000 to 10000 nM

Q: With `O=C(O)c1ccc(CN2C(=O)c3ccc(Cl)cc3NC(=O)[C@H]2Cc2cscn2)cc1` [Example 1m] as the compound, how does the IC50 read?
A: 1000 to 10000 nM

Q: With `C[C@@H]1C(=O)Nc2cc(Cl)ccc2C(=O)N1Cc1ccc(C(=O)O)c(Br)c1` [Example 1n] as the compound, how does the IC50 read?
A: 10000 to 35000 nM

Q: With `O=C(O)c1ccc(CN2C(=O)c3ccc(Cl)cc3NC(=O)[C@H]2Cc2cccnc2)cc1` [Example 2a, (R)-4-((8-Chloro-2,5-dioxo-3-(pyridin-3-ylmethyl)-2,3-dihydro-1H-benzo[e][1,4]diazepin-4(5H)-yl)methyl)benzoic Acid] as the compound, how does the IC50 read?
A: 100 to 999 nM

Q: For `O=C(O)c1ccc(CN2C(=O)c3ccc(Cl)cc3NC(=O)[C@@H]2Cc2ccc(O)cc2)cc1` [Example 2c], which IC50 is on record?
A: 10000 to 35000 nM

Q: For `O=C(O)c1ccc(CN2C(=O)c3ccc(Cl)cc3NC(=O)[C@H]2Cc2ccc(O)cc2)cc1` [Example 2d], which IC50 is on record?
A: 1000 to 10000 nM

Q: Which IC50 does the source give for `COc1ccc2c(c1)NC(=O)[C@@H](Cc1cccnc1)N(Cc1ccc(C(=O)O)cc1)C2=O` [Example 2e] here?
A: 1000 to 10000 nM

Q: `COc1ccc2c(c1)NC(=O)[C@@H](Cc1ccc(Cl)c(Cl)c1)N(Cc1ccc(C(=O)O)cc1)C2=O` [Example 2f] was tested. Which IC50 did it give?
A: 1000 to 10000 nM

Q: For `O=C(O)c1ccc(CN2C(=O)c3ccc(F)cc3NC(=O)[C@H]2Cc2ccc(Cl)c(Cl)c2)cc1` [Example 2g], which IC50 is on record?
A: 1000 to 10000 nM

Q: `O=C(O)c1ccc(CN2C(=O)c3ccc([N+](=O)[O-])cc3NC(=O)[C@H]2Cc2ccc(Cl)c(Cl)c2)cc1` [Example 2h] was tested. Which IC50 did it give?
A: 1000 to 10000 nM

Q: With `O=C(O)c1ccc(CN2C(=O)c3ccc([N+](=O)[O-])cc3NC(=O)[C@H]2Cc2cccnc2)cc1` [Example 2i] as the compound, how does the IC50 read?
A: 1000 to 10000 nM

Q: For `O=C(O)c1ccc(CN2C(=O)c3ccc(Cl)cc3NC(=O)[C@H]2Cc2ccccc2)cc1` [Example 3a, (R)-4-((3-Benzyl-8-chloro-2,5-dioxo-2,3-dihydro-1H-benzo[e][1,4]diazepin-4(5H)-yl)methyl)benzoic Acid], which IC50 is on record?
A: 1000 to 10000 nM

Q: `C[C@H]1C(=O)Nc2cc(Cl)ccc2C(=O)N1Cc1ccc(C(=O)O)cc1` [Example 3b] was tested. Which IC50 did it give?
A: 10000 to 35000 nM

Q: How did the IC50 turn out when `O=C(O)c1ccc(CN2C(=O)c3ccc(Cl)cc3NC(=O)[C@H]2CCc2ccccc2)cc1` [Example 3c] was run?
A: 10000 to 35000 nM

Q: `O=C(O)c1ccc(CN2C(=O)c3ccc(Cl)cc3NC(=O)[C@H]2Cc2ccc(F)cc2)cc1` [Example 3d] was tested. Which IC50 did it give?
A: 1000 to 10000 nM

Q: How did the IC50 turn out when `O=C(O)c1ccc(CN2C(=O)c3ccc(Cl)cc3NC(=O)[C@H]2Cc2ccc(Cl)cc2)cc1` [Example 3e] was run?
A: 10000 to 35000 nM

Q: With `O=C(O)c1ccc(CN2C(=O)c3ccc(Cl)cc3NC(=O)[C@H]2Cc2cccc(Cl)c2)cc1` [Example 3f] as the compound, how does the IC50 read?
A: 1000 to 10000 nM

Q: Which IC50 does the source give for `C[C@@H]1C(=O)Nc2cc(Cl)ccc2C(=O)N1Cc1ccc(C(=O)O)cc1` [Example 3g] here?
A: 10000 to 35000 nM

Q: For `Cc1ccc(C[C@@H]2C(=O)Nc3cc(Cl)ccc3C(=O)N2Cc2ccc(C(=O)O)cc2)cc1` [Example 3h], which IC50 is on record?
A: 10000 to 35000 nM

Q: How did the IC50 turn out when `O=C(O)c1ccc(CN2C(=O)c3ccc(Cl)cc3NC(=O)[C@H]2Cc2ccccc2Cl)cc1` [Example 3i] was run?
A: 1000 to 10000 nM

Q: How did the IC50 turn out when `O=C(O)c1ccc(CN2C(=O)c3ccc(Cl)cc3NC(=O)[C@H]2Cc2ccccc2F)cc1` [Example 3j] was run?
A: 10000 to 35000 nM

Q: Which IC50 does the source give for `CC(C)[C@@H]1C(=O)Nc2cc(Cl)ccc2C(=O)N1Cc1ccc(C(=O)O)cc1` [Example 3k] here?
A: 100 to 999 nM

Q: For `Cc1ccccc1C[C@@H]1C(=O)Nc2cc(Cl)ccc2C(=O)N1Cc1ccc(C(=O)O)cc1` [Example 3l], which IC50 is on record?
A: 1000 to 10000 nM

Q: How did the IC50 turn out when `Cc1cccc(C[C@@H]2C(=O)Nc3cc(Cl)ccc3C(=O)N2Cc2ccc(C(=O)O)cc2)c1` [Example 3m] was run?
A: 1000 to 10000 nM

Q: For `N#Cc1cccc(C[C@@H]2C(=O)Nc3cc(Cl)ccc3C(=O)N2Cc2ccc(C(=O)O)cc2)c1` [Example 3n], which IC50 is on record?
A: 1000 to 10000 nM

Q: For `O=C1CN(Cc2ccc(C(=O)O)cc2)C(=O)c2ccc(Cl)cc2N1` [Example 3o], which IC50 is on record?
A: 10000 to 35000 nM

Q: `O=C(Nc1ccccn1)c1ccc(CN2C(=O)c3ccc(Cl)cc3NC(=O)[C@H]2Cc2cccc(Cl)c2)cc1` [Example 4aa, (R)-4-((8-chloro-3-(3-chlorobenzyl)-2,5-dioxo-2,3-dihydro-1H-benzo[e][1,4]diazepin-4(5H)-yl)methyl)-N-(pyridin-2-yl)benzamide] was tested. Which IC50 did it give?
A: < 100 nM

Q: `O=C1Nc2cc(Cl)ccc2C(=O)N(Cc2ccc(C(=O)n3ccc4cccnc43)c(Cl)c2)[C@@H]1Cc1ccccn1` [Example 4ab, (R)-8-chloro-4-(3-chloro-4-(1H-pyrrolo[2,3-b]pyridine-1-carbonyl)benzyl)-3-(pyridin-2-ylmethyl)-3,4-dihydro-1H-benzo[e][1,4]diazepine-2,5-dione] was tested. Which IC50 did it give?
A: < 100 nM

Q: Which IC50 does the source give for `Cc1ccc2c(c1)NC(=O)[C@@H](Cc1ccc(Cl)c(Cl)c1)N(Cc1ccc(C(=O)Nc3ccccn3)cc1)C2=O` [Example 4ac, (R)-4-((3-(3,4-dichlorobenzyl)-8-methyl-2,5-dioxo-2,3-dihydro-1H-benzo[e][1,4]diazepin-4(5H)-yl)methyl)-N-(pyridin-2-yl)benzamide] here?
A: 100 to 999 nM

Q: `O=C(Nc1ccccn1)c1ccc(CN2C(=O)c3ccc([N+](=O)[O-])cc3NC(=O)[C@H]2Cc2ccc(Cl)c(Cl)c2)cc1` [Example 4ae, (R)-4-((3-(3,4-dichlorobenzyl)-8-nitro-2,5-dioxo-2,3-dihydro-1H-benzo[e][1,4]diazepin-4(5H)-yl)methyl)-N-(pyridin-2-yl)benzamide] was tested. Which IC50 did it give?
A: 100 to 999 nM

Q: How did the IC50 turn out when `Cc1cnc2c(c1)CCN2C(=O)c1ccc(CN2C(=O)c3ccc(Cl)cc3NC(=O)[C@H]2Cc2ccccn2)cc1` [Example 4af, (R)-8-chloro-4-(4-(5-methyl-2,3-dihydro-1H-pyrrolo[2,3-b]pyridine-1-carbonyl)benzyl)-3-(pyridin-2-ylmethyl)-3,4-dihydro-1H-benzo[e][1,4]diazepine-2,5-dione] was run?
A: < 100 nM

Q: With `O=C1Nc2cc(Cl)ccc2C(=O)N(Cc2ccc(C(=O)N3CCCc4cccnc43)cc2)[C@@H]1Cc1ccccn1` [Example 4ag, (R)-8-chloro-3-(pyridin-2-ylmethyl)-4-(4-(1,2,3,4-tetrahydro-1,8-naphthyridine-1-carbonyl)benzyl)-3,4-dihydro-1H-benzo[e][1,4]diazepine-2,5-dione] as the compound, how does the IC50 read?
A: 1000 to 10000 nM

Q: For `O=C1Nc2cc(Cl)ccc2C(=O)N(Cc2ccc(C(=O)N3CCc4cccnc43)cc2)[C@@H]1Cc1ccccn1` [Example 4ah, (R)-8-chloro-4-(4-(2,3-dihydro-1H-pyrrolo[2,3-b]pyridine-1-carbonyl)benzyl)-3-(pyridin-2-ylmethyl)-3,4-dihydro-1H-benzo[e][1,4]diazepine-2,5-dione], which IC50 is on record?
A: < 100 nM

Q: Which IC50 does the source give for `Cc1ccccc1C[C@@H]1C(=O)Nc2cc(Cl)ccc2C(=O)N1Cc1ccc(C(=O)Nc2ccccn2)cc1` [Example 4ai, (R)-4-((8-chloro-3-(2-methylbenzyl)-2,5-dioxo-2,3-dihydro-1H-benzo[e][1,4]diazepin-4(5H)-yl)methyl)-N-(pyridin-2-yl)benzamide] here?
A: < 100 nM

Q: How did the IC50 turn out when `Cc1cccc(C[C@@H]2C(=O)Nc3cc(Cl)ccc3C(=O)N2Cc2ccc(C(=O)Nc3ccccn3)cc2)c1` [Example 4aj, (R)-4-((8-chloro-3-(3-methylbenzyl)-2,5-dioxo-2,3-dihydro-1H-benzo[e][1,4]diazepin-4(5H)-yl)methyl)-N-(pyridin-2-yl)benzamide] was run?
A: 100 to 999 nM

Q: For `N#Cc1cccc(C[C@@H]2C(=O)Nc3cc(Cl)ccc3C(=O)N2Cc2ccc(C(=O)Nc3ccccn3)cc2)c1` [Example 4ak, (R)-4-((8-chloro-3-(3-cyanobenzyl)-2,5-dioxo-2,3-dihydro-1H-benzo[e][1,4]diazepin-4(5H)-yl)methyl)-N-(pyridin-2-yl)benzamide], which IC50 is on record?
A: < 100 nM

Q: `Cc1ccc(NC(=O)c2ccc(CN3C(=O)c4ccc(Cl)cc4NC(=O)[C@H]3Cc3cscn3)cc2)nc1` [Example 4al, (R)-4-((8-chloro-2,5-dioxo-3-(thiazol-4-ylmethyl)-2,3-dihydro-1H-benzo[e][1,4]diazepin-4(5H)-yl)methyl)-N-(5-methylpyridin-2-yl)benzamide] was tested. Which IC50 did it give?
A: < 100 nM

Q: For `O=C1CN(Cc2ccc(C(=O)Nc3ccccn3)cc2)C(=O)c2ccc(Cl)cc2N1` [Example 4am, 4-((8-chloro-2,5-dioxo-2,3-dihydro-1H-benzo[e][1,4]diazepin-4(5H)-yl)methyl)-N-(pyridin-2-yl)benzamide], which IC50 is on record?
A: 100 to 999 nM
